Assays:
in vivo = details: rat, po, 3 mg/kg
Procedure: Pharmacokinetic parameters were calculated by statistical moment method using WinNonLin 8.0 software, mainly including Tmax, T1/2, Cmax and AUC0-24h.
Animals: Three male SD rats weighing 200-220 g were used. After purchase, they were housed in the laboratory animal center for 2 days before experiment. […] Blood samples were collected at scheduled time points after oral gavage.
Vehicle: 0.4% ethanol + 0.4% Tween 80 + 99.2% (0.5% methylcellulose M450). Preparation of oral gavage solution: The compound was accurately weighed and dissolved in vehicle by ultrasonication for 5 min at room temperature to prepare 0.3 mg/mL drug solution.
Single compound administration was also used to study pharmacokinetics in rats.
Blood sample collection: After oral gavage, blood samples were collected from orbital sinus at 0.25, 0.5, 1, 2, 4, 8, 10 and 24 h. 50 µL plasma was mixed with 200 µL acetonitrile (containing 2 ng/mL verapamil as internal standard). The mixture was vortexed for 3 min, then centrifuged at 20000 rcf for 10 min at 4 °C. The supernatant was analyzed by LC-MS/MS.
Standard curves were established by accurately weighing and preparing compounds at different concentrations for mass spectrometric quantification. Compound concentrations in plasma samples were determined based on standard curves to obtain concentration-time profiles. All measurement data were collected and processed by relevant software. Pharmacokinetic parameters (including Tmax, T1/2, Cmax and AUC0-24h) were calculated by statistical moment method.

FLT3 = target: T1, FLT3 (Homo sapiens, UniProt P36888); assay: FLT3 kinase activity inhibition assay (Mobility shift assay); type: biochemical
T1 sequence (P36888 27-993): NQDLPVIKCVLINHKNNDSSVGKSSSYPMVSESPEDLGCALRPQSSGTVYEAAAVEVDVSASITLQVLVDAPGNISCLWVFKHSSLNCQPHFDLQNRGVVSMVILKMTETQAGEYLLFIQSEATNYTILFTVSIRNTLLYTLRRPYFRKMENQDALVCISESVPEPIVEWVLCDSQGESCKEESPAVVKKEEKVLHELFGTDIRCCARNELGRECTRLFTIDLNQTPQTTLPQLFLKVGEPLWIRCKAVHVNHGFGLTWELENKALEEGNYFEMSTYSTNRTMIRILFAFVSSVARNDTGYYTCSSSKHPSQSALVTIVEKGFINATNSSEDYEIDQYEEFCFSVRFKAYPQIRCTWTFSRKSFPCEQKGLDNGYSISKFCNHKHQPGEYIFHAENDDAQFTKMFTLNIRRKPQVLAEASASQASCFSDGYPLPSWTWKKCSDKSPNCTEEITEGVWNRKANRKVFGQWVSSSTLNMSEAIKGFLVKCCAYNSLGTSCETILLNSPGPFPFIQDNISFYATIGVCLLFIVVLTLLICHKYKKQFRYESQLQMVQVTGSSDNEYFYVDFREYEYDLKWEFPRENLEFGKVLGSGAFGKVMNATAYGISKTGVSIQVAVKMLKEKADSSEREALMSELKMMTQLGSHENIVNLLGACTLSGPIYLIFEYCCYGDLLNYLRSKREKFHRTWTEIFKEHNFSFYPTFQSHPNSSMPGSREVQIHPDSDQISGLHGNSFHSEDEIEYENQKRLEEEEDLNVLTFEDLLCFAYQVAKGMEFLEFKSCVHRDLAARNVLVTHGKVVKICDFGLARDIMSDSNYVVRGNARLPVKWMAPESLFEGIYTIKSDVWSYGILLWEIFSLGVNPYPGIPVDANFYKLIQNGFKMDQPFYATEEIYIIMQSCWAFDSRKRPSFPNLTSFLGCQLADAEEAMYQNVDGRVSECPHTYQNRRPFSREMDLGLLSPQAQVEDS
Procedure: Testing compound inhibitory activity against FLT3 and AXL kinases using Mobility shift assay. Compounds were dissolved in 100% DMSO to prepare 10 mM stock solutions. Prepare 1× Kinase Buffer. Test compounds were serially diluted in 5-fold gradients, and 250 nL of 100× final concentration compounds were transferred to destination plate 3573 using an Echo 550 liquid handler. A 2.5× final concentration kinase solution was prepared in 1× Kinase Buffer. Then, 10 µL of the 2.5× kinase solution was added to both compound wells and positive control wells, while 10 µL of 1× Kinase Buffer was added to negative control wells. The plate was centrifuged at 1000 rpm for 30 seconds, mixed by orbital shaking, and incubated at room temperature for 10 minutes. A 5/3× final concentration mixture of ATP and Kinase Substrate 25 was prepared in 1× Kinase Buffer. The reaction was initiated by adding 15 µL of the 5/3× ATP/substrate mixture. The 384-well plate was centrifuged at 1000 rpm for 30 seconds, mixed by shaking, and incubated at room temperature for 120 minutes. The kinase reaction was terminated by adding 30 µL stop solution, followed by centrifugation at 1000 rpm for 30 seconds and mixing. Conversion rates were measured using a Caliper EZ Reader. %Inhibition = (Conversion%_max - Conversion%_sample)/(Conversion%_max - Conversion%_min) × 100. Where: Conversion%_sample: Conversion rate reading of test samples; Conversion%_min: Mean value of negative control wells (representing conversion rate without enzyme activity); Conversion%_max: Mean value of positive control wells (representing conversion rate without compound inhibition). Dose-response curves were plotted with log(concentration) as the X-axis and percentage inhibition as the Y-axis. Curve fitting was performed using GraphPad Prism 5 software with the "log(inhibitor) vs. response - Variable slope" model to derive IC50 values for each compound's enzyme inhibitory activity. The fitting formula was: Y = Bottom + (Top - Bottom)/(1 + 10^((LogIC50 - X) × HillSlope)).

HPK1 kinase = HPK1 kinase (Homo sapiens, UniProt Q92918); assay: HPK1 kinase activity inhibition assay (Mobility shift assay); type: biochemical
Procedure: Measure compound inhibitory activity against HPK1 kinase using Mobility shift assay. Compounds were dissolved in 100% DMSO to prepare 10 mM stock solutions. 1× Kinase buffer was prepared. Test compounds were serially diluted in 5-fold gradients, and 250 nL of 100× final concentration compounds were transferred to destination plate 3573 using an Echo 550 liquid handler. A 2.5× final concentration kinase solution was prepared in 1× Kinase Buffer. 10 µL of the 2.5× kinase solution was added to both compound wells and positive control wells, while 10 µL of 1× Kinase buffer was added to negative control wells. The plate was centrifuged at 1000 rpm for 30 seconds, mixed by orbital shaking, and incubated at room temperature for 10 minutes. A 5/3× final concentration mixture of ATP and Kinase substrate 25 was prepared in 1× Kinase buffer. 15 µL of the 5/3× ATP/substrate mixture was added to initiate the reaction. The 384-well plate was centrifuged at 1000 rpm for 30 seconds, mixed by shaking, and incubated at room temperature for 120 minutes. The kinase reaction was terminated by adding 30 µL stop solution, followed by centrifugation at 1000 rpm for 30 seconds and mixing. Conversion rates were measured using a Caliper EZ Reader. The inhibition percentage was calculated as: %Inhibition = (Conversion%_max - Conversion%_sample)/(Conversion%_max - Conversion%_min) × 100. Where Conversion%_sample: Conversion rate reading of test samples; Conversion%_min: Mean value of negative control wells (representing conversion rate without enzyme activity); Conversion%_max: Mean value of positive control wells (representing conversion rate without compound inhibition). Dose-response curves were plotted with log(concentration) as the X-axis and percentage inhibition as the Y-axis. Curve fitting was performed using GraphPad Prism 5 software with the "log(inhibitor) vs. response - Variable slope" model to derive IC50 values for each compound's enzyme inhibitory activity. The fitting formula was: Y = Bottom + (Top - Bottom)/(1 + 10^((LogIC50 - X) × HillSlope)).

FAK kinase = FAK kinase (Homo sapiens, UniProt Q05397); assay: FAK kinase activity inhibition assay, method A (HTRF) and method B (Lantha screen); type: biochemical
Procedure: The HTRF method was used to evaluate the inhibitory activity of the compounds against FAK kinase. […]. The reaction conditions were: FAK kinase at 0.1 ng/µL; ATP 10 µM; substrate concentration 1 µM. Compounds were serially diluted in DMSO and shaken on a shaker for 20 minutes. Prepare 2× kinase using 1× reaction buffer. Transfer 25 nL compound to a 384-well plate using Echo 655. Add 2.5 µL kinase per well. Seal the plate with sealing film, centrifuge at 1000 rpm for 60 seconds, and incubate at 25°C for 12 hours. Prepare 2× ATP/substrate mix using 1× enzyme reaction buffer and add 2.5 µL 2× ATP/substrate mix per well. Seal the plate with sealing film, centrifuge at 1000 rpm for 60 seconds, and incubate at 25°C for 50 minutes. Prepare 2×XL665 & antibody solution using HTRF detection buffer, and add 5 µL per well. Incubate at 25°C for 60 minutes. Read fluorescence at 620 nm (Cryptate) and 665 nm (XL665). Calculate the ratio per well (Ratio_665/620 nm). % Inhibition = 100% - [(Compound Ratio - Positive Control Ratio)/ (Negative Control Ratio - Positive Control Ratio)] × 100%. IC50 values (half-maximal inhibitory concentration) were calculated by nonlinear regression using GraphPad Prism 7.0. Y = Bottom + (Top - Bottom)/ (1 + 10^ ((LogIC50 - X) × Hill Slope)), where X is the log of compound concentration and Y is the % inhibition.
The Lantha screen assay was used to evaluate the FAK kinase inhibitory activity. Compounds were dissolved in 100% DMSO at 10 mM stock concentration. Prepare 1× kinase buffer (25 mM HEPES, pH 7.5, 0.01 mM Triton, 0.5 mM EGTA, 0.01% Brij-35). Dilute compounds in a gradient, and transfer 5 µL compound into the reaction plate. Prepare 2× kinase solution with 1× Kinase buffer. Add 5 µL kinase solution to compound and positive control wells, and 5 µL 1× Kinase buffer to negative control wells. Mix reaction plate by shaking. Prepare 4× ATP/Fluorescein-polyGT substrate mix with 1× Kinase buffer. Add 2.5 µL substrate solution to initiate the reaction. Shake and incubate at room temperature for 30 minutes. Prepare 2× detection reagent (2 nM antibody, 10 mM EDTA) and add 10 µL per well to stop the reaction. Briefly centrifuge, mix, and incubate for 60 minutes. Read fluorescence at 340 nm excitation and 520 nm/495 nm emission using EnVision. Collect data and calculate 520 nm/495 nm ratio. Calculate the inhibition percentage using the formula: % Inhibition = (Max - Sample Ratio)/(Max - Min) × 100, where min is the mean of negative control wells (no enzyme activity), and max is the mean of positive control wells (DMSO-inhibited conversion rate).Use XLFit Excel add-in version 5.4.0.8 to determine the IC50 values of each compound against the enzyme activity: Y = Bottom + (Top - Bottom)/(1 + (IC50/X)^HillSlope).

HPK1 kinase, sequence (Q92918 whole entry): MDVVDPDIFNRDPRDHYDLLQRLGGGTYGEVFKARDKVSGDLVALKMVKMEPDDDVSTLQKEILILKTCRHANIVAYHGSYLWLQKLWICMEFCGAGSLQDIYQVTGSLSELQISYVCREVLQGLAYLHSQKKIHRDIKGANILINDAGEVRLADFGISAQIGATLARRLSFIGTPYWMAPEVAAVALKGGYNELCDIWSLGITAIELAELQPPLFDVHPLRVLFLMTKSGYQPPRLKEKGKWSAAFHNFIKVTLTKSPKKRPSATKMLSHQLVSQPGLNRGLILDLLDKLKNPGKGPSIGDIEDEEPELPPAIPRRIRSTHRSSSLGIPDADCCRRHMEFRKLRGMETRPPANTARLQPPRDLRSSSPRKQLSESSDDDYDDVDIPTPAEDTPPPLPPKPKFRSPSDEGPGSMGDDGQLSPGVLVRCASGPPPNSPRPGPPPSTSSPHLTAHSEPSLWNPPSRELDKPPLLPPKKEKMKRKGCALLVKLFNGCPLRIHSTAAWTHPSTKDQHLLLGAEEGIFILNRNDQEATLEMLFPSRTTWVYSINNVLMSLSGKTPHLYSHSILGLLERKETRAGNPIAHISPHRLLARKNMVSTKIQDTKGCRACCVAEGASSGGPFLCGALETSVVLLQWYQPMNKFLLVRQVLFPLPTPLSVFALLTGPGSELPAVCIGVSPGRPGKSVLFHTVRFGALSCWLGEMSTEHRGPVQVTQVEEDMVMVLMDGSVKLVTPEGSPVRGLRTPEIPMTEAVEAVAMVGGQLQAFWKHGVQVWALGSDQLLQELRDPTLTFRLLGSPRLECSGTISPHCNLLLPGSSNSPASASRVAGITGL
FAK kinase, sequence (Q05397 whole entry): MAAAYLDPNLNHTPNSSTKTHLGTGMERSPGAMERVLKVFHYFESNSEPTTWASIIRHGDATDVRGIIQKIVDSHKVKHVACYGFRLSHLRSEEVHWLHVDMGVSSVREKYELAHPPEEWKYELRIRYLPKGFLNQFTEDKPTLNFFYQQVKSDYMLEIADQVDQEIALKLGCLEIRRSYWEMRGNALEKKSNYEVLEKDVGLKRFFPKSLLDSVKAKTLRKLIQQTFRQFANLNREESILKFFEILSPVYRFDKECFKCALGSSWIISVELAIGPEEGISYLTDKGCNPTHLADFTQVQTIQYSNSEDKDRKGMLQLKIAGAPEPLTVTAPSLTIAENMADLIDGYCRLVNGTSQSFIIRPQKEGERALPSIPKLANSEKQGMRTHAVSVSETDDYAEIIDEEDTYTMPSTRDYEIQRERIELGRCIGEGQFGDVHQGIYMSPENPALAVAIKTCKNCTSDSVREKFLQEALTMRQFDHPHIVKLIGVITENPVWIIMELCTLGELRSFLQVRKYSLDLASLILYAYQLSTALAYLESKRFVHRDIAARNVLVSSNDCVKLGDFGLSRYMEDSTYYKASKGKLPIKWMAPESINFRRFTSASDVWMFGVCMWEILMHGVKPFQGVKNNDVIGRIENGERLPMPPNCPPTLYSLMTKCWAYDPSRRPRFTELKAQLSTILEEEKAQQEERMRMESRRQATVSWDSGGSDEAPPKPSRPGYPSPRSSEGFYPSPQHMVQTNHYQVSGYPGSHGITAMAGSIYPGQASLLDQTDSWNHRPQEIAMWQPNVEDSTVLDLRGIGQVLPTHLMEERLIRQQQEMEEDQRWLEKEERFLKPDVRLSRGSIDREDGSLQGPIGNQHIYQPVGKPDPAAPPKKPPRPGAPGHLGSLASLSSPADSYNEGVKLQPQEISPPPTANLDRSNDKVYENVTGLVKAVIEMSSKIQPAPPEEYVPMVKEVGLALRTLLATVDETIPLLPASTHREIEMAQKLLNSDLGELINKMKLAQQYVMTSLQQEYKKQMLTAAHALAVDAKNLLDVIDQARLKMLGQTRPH

SMILES | AUC(0-t) at 24 h (in vivo) | Cmax (in vivo) | Tmax (in vivo) | half-life (in vivo) | IC50 (FLT3) | IC50 (HPK1 kinase) | IC50 (FAK kinase)
CCc1cc2c(cc1Nc1ncc(C(F)(F)F)c(NCCCN3CCOCCC3=O)n1)OC[C@H]1CN(C3COC3)CCN21 [Compound A12R] | 1460 ng·h/mL | 487 ng/mL | 0.5 h | 1.76 h |  |  | 
CNC(=O)c1ccccc1Nc1cc(Nc2cc3c(cc2OC)N2CCN(C4CCOCC4)C[C@@H]2CO3)ncc1C(F)(F)F [Compound D1R] |  |  |  |  | < 30 nM | < 30 nM | < 3 nM
